Measurements published in patent US4914086A, “Method for treating African human and veterinary trypanosomiases” (priority 1987, dated 1990).

Test system: T. b. brucei EATRO 110
Test: Drug screen, acute EATRO 110 mouse infection (Tables 1, 3)
Type: in vivo, Trypanosoma brucei brucei (in Swiss-Webster mice)
Conditions: for activity in words: 300 mg/kg; for # Cured/Total / % Cured: Table 1, treatment begun 24 h post infection
From the text: T. b. brucei EATRO 110 isolate was maintained as described (Bacchi, C. J., H. C. Nathan, S. H. Hutner, P. P. McCann and A. Sjoerdsma; Polyamine metabolism: a potential chemotherapeutic target in trypanosomes. Science 210: 332-334, 1980). It produces an acute, rapidly fatal parasitemia which is lethal to mice 3-5 days after inoculation. Two T. B. brucei strains, TREU 667 and LUMP 1001 developed by Jennings and coworkers (Jennings, F. W., D. D. Whitelaw and G. M. Urquhart; The relationship between duration of infection with Trypanosoma brucei in mice and the efficacy of chemotherapy. Parasitology 75: 143-153, 1977/Jennings, F. W. and G. D. Gray; Relapsed parasitemia following chemotherapy of chronic T. brucei infections in mice and its relation to cerebral trypanosomes; Contr. Microbiol. Immunol. 7 147-154, 1983) were used as CNS models. Both produce infections which are refractory to Berenil® (diminazene aceturate) and develop within 21 days after inoculation. They are not usually fatal until >40 days after inoculation. LUMP 1001 causes a more virulent CNS infection than TREU 667, and is regarded as more difficult to cure (Jennings, F. W. and G. D. Gray. Relapsed parasitemia following chemotherapy of chronic T. brucei infections in mice and its relation to cerebral trypanosomes. Contr. Microbiol. Immunol. 7 147-154, 1983).
Swiss-Webster (25-30 g) mice were used throughout. In the EATRO 110 model, groups of 100 mice were infected (10^5 trypanosomes/mouse) and the infection was allowed to develop 24 hours before commencing therapy. Animals were divided into groups of 5 before treatment. Cured animals survived >30 days beyond deaths of controls. All compounds were administered by i.p. injection.
Other methods as in Table 1.

Row | Structure (SMILES) | activity in words | # Cured/Total (250 mg/kg i.p.) | % Cured (250 mg/kg i.p.) [%] | # Cured/Total (300 mg/kg i.p.) | % Cured (300 mg/kg i.p.) [%]
1 | O=c1ncnc2n([C@H]3O[C@@H](CO)[C@H](O)[C@@H]3O)[nH]cc1-2 (stereo in doubt) [Allopurinol Riboside, reference compound] | completely inactive | 0/5 | 0 |  | 
2 | Oc1ncnc2[nH]ncc12 [Allopurinol, reference compound] | completely inactive |  |  | 0/5 | 0
